Measured values published in US20180310552A1, “Composition comprising a safener, a fungicide and metalaxyl” (priority 2015, published 2018).

Assays:
Fusarium culmorum [1] = assay: Fusarium culmorum (wheat)/seed treatment, greenhouse, 7 days at 20° C.; type: in vivo; settings: seed treatment
Description: (§1) According to another aspect of the present invention, in the composition according to the invention, the compound ratio A/B, A/C or A/B/C may be advantageously chosen so as to produce a synergistic effect. A synergistic effect of fungicides is always present when the fungicidal activity of the active compound combinations exceeds the total of the activities of the active compounds when applied individually. The expected activity for a given combination of two or three active compounds can be calculated as follows (cf. Colby, S. R., “Calculating Synergistic and Antagonistic Responses of Herbicide Combinations”, Weeds 1967, 15, 20-22).
(§2) wherein • X denotes the efficacy when using active compound A at an application rate of m ppm (or g/ha), • Y denotes the efficacy when using active compound B (or C) at an application rate of n ppm (or g/ha), • Z denotes the efficacy when using active compound C at an application rate of r ppm (or g/ha), • E1 denotes the efficacy when using active compounds A and B at application rates of m and n ppm (or g/ha), and • E2 denotes the efficacy when using active compounds A and B and C at application rates of m and n and r ppm (or g/ha),
(§3) Here, the efficacy is determined in %. 0% means an efficacy which corresponds to that of the control, whereas an efficacy of 100% means that no infection is observed.
(§4) If the actual fungicidal action exceeds the calculated value, the action of the combination is superadditive, i.e. a synergistic effect is present. In this case, the actually observed efficacy must exceed the value calculated using the above formula for the expected efficacy (E1 or E2).
(§5) The test is performed under greenhouse conditions.
(§6) Active compounds solved in N-methyl-2-pyrrolidon, or combinations thereof were diluted with water to the desired dosages. Wheat seeds were treated with these preparations and sown in 7×7 cm pots filled with 1:1 mix of steamed field soil and sand, mixed with a wheat grain culture of Fusarium culmorum.
Pots were incubated in the greenhouse for 7 days at 20° C. […]

Fusarium culmorum [2] = assay: Fusarium culmorum (wheat)/seed treatment, greenhouse, 7 days at 15° C. (Example 5); type: in vivo; settings: seed treatment
Description: as §1, §2, §3, §4, §5
as §6, with “Commercially available disease control agents, active” for “Active”, “6*6” for “7×7”, “containing 4 cm of a” for “filled with”
Pots were incubated in the greenhouse for 7 days at 15° C.
Assessment consisted of counting of emerged seedlings and diseased plants. 0% means an efficacy which corresponds to that of the untreated control (infection rate was 73%), while an efficacy of 100% means that all seedlings have emerged and are healthy.

`CCOC(=O)C1=NN(c2ccc(Cl)cc2Cl)C(C)(C(=O)OCC)C1` (racemic) [Mefenpyr-diethyl, diethyl (RS)-1-(2,4-dichlorophenyl)-5-methyl-2-pyrazoline-3,5-dicarboxylate] was tested, and the Efficacy in % (Fusarium culmorum [1]; 60 g a.i./dt) was 9%, the Efficacy in % (Fusarium culmorum [2]; 25 g a.i./kg seed) was 9% and the Efficacy in % (Fusarium culmorum [2]; 50 g a.i./kg seed) was 0%.
`OC(Cc1ccccc1Cl)(Cn1[nH]cnc1=S)C1(Cl)CC1` (stereo not shown) [Prothioconazole, 2-[2-(1-chlorocyclopropyl)-3-(2-chlorophenyl)-2-hydroxypropyl]-1,2-dihydro-3H-1,2,4-triazole-3-thione] showed an Efficacy in % (Fusarium culmorum [1]; 16 g a.i./dt) of 45% and an Efficacy in % (Fusarium culmorum [2]; 15 g a.i./kg seed) of 64%.
For `COCC(=O)N(c1c(C)cccc1C)C(C)C(=O)OC` (racemic) [Metalaxyl, methylN-(2,6-dimethylphenyl)-N-(methoxyacetyl)-DL-alaninate], the Efficacy in % (Fusarium culmorum [1]; 6 g a.i./dt) was 0% and the Efficacy in % (Fusarium culmorum [2]; 2 g a.i./kg seed) was 18%.
